# From patent US20190175519A1, “Naloxone Transdermal Delivery Devices and Methods for Using the Same” (Teikoku Pharma USA, Inc., priority 2017, published 2019)
# Experiment: Pharmacokinetics of transdermal naloxone formulations compared to intravenously administered naloxone
# Parameters: species or system Gottingen mini-pigs
# Settings: female, Gottingen, minipig, in vivo; IV bolus 0.01 mg/kg via marginal ear vein; first time point collected; post dose
# Source text: The purpose of this study was to determine the dermal irritation and pharmacokinetics of two transdermal naloxone formulations when worn for three days by naïve female Gottingen mini-pigs and to compare the pharmacokinetic transdermal profiles to the PK of intravenously (IV) administered naloxone.
# Test materials (Naloxone Transdermal Formulations 1 & 2) were in the form of a single patch that was applied to the prepared skin site of the animals and remained on for a period of three (3) days.
# The positive control article (marketed formulation), Naloxone (Narcan 0.4 mg/mL) was diluted with sterile 0.9% normal saline to a concentration of 0.04 mg/mL in order to achieve a desired dose volume of 0.25 mL/kg and dosage of 0.01 mg/kg. […]
# Group 3: Narcan intravenous formulation (0.4 mg/mL) was diluted with sterile 0.9% normal saline to a concentration of 0.04 mg/mL. The dose volumes were calculated using the individual body weights of the pigs on the day of dosing. […]
# The time of Test Material patch application and removal were recorded for each animal so that dermal scoring and PK time-points were calculated. The time of intravenous injection was also recorded so that PK time-points were calculated.
smiles,measurement,value
"C=CCN1CC[C@]23c4c5ccc(O)c4O[C@H]2C(=O)CC[C@@]3(O)[C@H]1C5 [Naloxone, 17-allyl-4,5α-epoxy-3,14-dihydroxymorphinan-6-one]",Tmax,5 min
